Test system: K5/IL-18 Tg (+) mice
Test: Suppression of spontaneous dermatitis in K5/IL-18 transgenic (Tg (+)) mice, appearance and HE histopathology of back skin
Format: in vivo
Conditions: 1% (10 mg/mL) applied to back skin for consecutive seven days
From the text: The spontaneous dermatitis (A) refers to an inflammation that reaches its peak approximately on the 8th to 12th day after birth of an IL-18-introduced mouse and disappears after about four weeks and that has been identified by the inventors of the present invention for the first time. Pathologically speaking, in this inflammation, acanthosis (epidermal thickening) , hyperkeratosis, and inflammatory cell infiltrations that neutrophilic leukocytes are contained in dermis can be observed in dermal tissue, a slight sponge state is present in the epidermal base, and abscess formation in the cuticle due to epidermal neutrophilic infiltrations is observed (FIG. 3).
The evaluation method of the present invention can be performed as a method for screening agents for preventing/treating autoimmune dermatitis. The screening can be performed, for example, by the procedures of administrating an agent to be tested in either stage, before or after the occurrence of the peak of spontaneous dermatitis, and comparing mice without administration (control) in terms of the presence or the absence of peak occurrence, the size of the peak, the speed of peak disappearance or the like.
Next, the agent of preventing/treating dermatitis of the present invention will be described more specifically by way of examples. […]

## C[C@@H]1C[C@H]2[C@@H]3CCC4=CC(=O)C=C[C@]4(C)[C@@]3(F)[C@@H](O)C[C@]2(C)[C@@]1(O)C(=O)CO [dexamethasone]
  death from side effects (share of treated group): about a half
